Holding throughout (type): cell-based, human
One series concerns IL-6. Nature of the series: ELISA of IL-6 production in TNFα-inflamed HaCaT cells. Conditions: TNFα 20 ng/ml overnight, then 24 hours of treatment. As to the method: Cell lines of immortalized human keratinocytes (HaCaT cells) were grown at 37 °C, 5% CO2 in DMEM culture medium, added with 1% non-essential aminoacids and 10% FBS. The cells were plated in 48-wells multi-well plates at 5*10^4 cells/ml, in 10% FBS DMEM. The day after, the culture medium was removed and substituted with 500 µL of complete medium without FBS and at the same time an inflammatory process was induced by treatment with TNFα 20 ng/ml, maintained over/night. This stimulus induces an increase in production of these cytokines compared to controls not receiving TNFα.
An experimental group of untreated cells was included, as a negative control of inflammation.
The following day, the inflamed cells were treated with each ingredient prepared in Example 1, at the highest non-toxic concentrations identified in Example 2. • Cannabidiol (CBD): 0.031 (w/v) • GPI lysine (GPI): 0.31 (w/v) • lactoferrin hydrolysate (LAC): 1 (w/v). […]
The dosage of the pro-inflammatory cytokine IL-6 (interleukin 6) was performed on 100 µL of each of the stored aliquots, following the kit protocol provided by the manufacturer. […] The anti-inflammatory effect of the compounds and compositions testes is expressed as a percentage of interleukin's production, with respect to inflamed cells (TNFα-treated) not subjected to anti-inflammatory treatment.

In the next series the test system is HaCaT cells. Nature of the series: MTT assay, cytotoxicity test on HaCaT cells. As to conditions: 24 hours. As to the method:
(§1) Cells vitality is measured as absorbance after MTT treatment. Values are expressed as absorbance percentage over untreated (NT) cells; 1 mg/ml SDS is used as positive control; the boxes show the three highest non-toxic concentrations of each compound.
(§2) Cell lines of immortalized human keratinocyes (HaCaT cells) were grown at 37 °C, 5% CO2 in DMEM culture medium, added with 1% non-essential aminoacids and 10% FBS. The cells were plated in 96-wells multi-well plates at 10^4 cells/well, in 10% FBS -DMEM. The day after, the culture medium was removed and substituted with 100 µL of complete medium with 1% FBS; then, an MTT assay was carried out after treating cells with the single ingredients prepared in Example 1.
(§3) As positive control of toxicity, sodium dodecyl sulfate (SDS) was used, at the concentration of 1 mg/ml.
(§4) The cells were incubated for 24 hours at 37°C and 5% CO2.
(§5) At the end of each incubation, the reagent 3-(4,5-dimethylthiazol-2-yl)-2,5-diphenyltetrazolium bromide (MTT) was added to each well, at the final concentration of 0.45 mg/mL. The plates were then incubated for an additional 2 hours, at 37 °C and 5% CO2.
(§6) At the end of the incubation, the crystals of reduced MTT were solubilized by removing the medium and adding 100 µL of dimethyl sulfoxide (DMSO) to each well.
(§7) Finally, the absorbance at 595 nm of each sample was measured, using an Infinite M NANO+ (Tecan) plate reader.
(§8) The cell viability following treatment with the different substances was analyzed. Cell viability is expressed as percentage of absorbance at 595 nm of untreated cells (NT).

Series [1] is described as follows: MTT assay, cytotoxicity test on HaCaT cells. As to conditions: human, hacat cells, percentage of untreated cells (NT), read-out: Cell viability. As to the method: as §1, §2, §3, §4, §5, §6, §7, §8
(Tetrazolium assays rely on reduction of a dye to a coloured formazan, in cell work by metabolically active cells.)

Where two headings read alike, the source gives them in different places.

2 molecules from patent publication EP4523699A1, “ANTI-INFLAMMATORY DERMATOLOGICAL COMPOSITION COMPRISING GLYCEROPHOSPHOINOSITOL, A LACTOFERRIN HYDROLYSATE AND A CANNABINOID, IN PARTICULAR FOR TREATING SEBORRHEIC DERMATITIS” (FB Dermo srl, priority 2023, dated 2025) can be followed below.

Turning to `O=P(O)(OC[C@H](O)CO)OC1[C@H](O)[C@H](O)C(O)[C@H](O)[C@H]1O` (stereo partly drawn) [GPI Lysine, glycerophosphoinositol], the “IL-6 production (% vs TNFα) Mean” value in the series on IL-6 (0.031% (v/v)) was found to be 96 % vs TNFα. The Cell viability entry in the series on HaCaT cells (percentage of absorbance at 595 nm of untreated cells (NT), concentration 0.0313 % v/v) was “Above 50%”; in the series on HaCaT cells (percentage of untreated cells (NT), concentrations of 0.0156 - 0.001 % v/v), “around 80%”.

By viability is commonly meant a read-out of living cells in per cent, often relative to untreated cells. Regarding `C=C(C)[C@@H]1CCC(C)=C[C@H]1c1c(O)cc(CCCCC)cc1O` [CBD, cannabidiol], the activity at 0.03 % in the series with IL-6 (Homo sapiens, 0.03% (w/v)) came to 99%. For the same molecule, the viability at 24 h was roughly 50% in series [1] (concentration 0.063 % w/v) and roughly 80% in series [1] (concentrations from 0.031 to 0.004 % w/v).
